ChEMBL document CHEMBL1155521, “Synthesis and antibacterial activity of novel 4''-O-arylalkylcarbamoyl and 4''-O-((arylalkylamino)-4-oxo-butyl)carbamoyl clarithromycin derivatives” (2010)
≈ marks a conversion by molar mass, not a printed value.

Experiments:
Assay type in all cases: functional
Streptococcus pneumoniae [1] = assay: Antibacterial activity against erythromycin-resistant Streptococcus pneumoniae A22072 expressing mef gene by broth microdilution method
Streptococcus pneumoniae [2] = assay: Antibacterial activity against erythromycin-susceptible Streptococcus pneumoniae ATCC 49619 by broth microdilution method
Streptococcus pneumoniae [3] = assay: Antibacterial activity against erythromycin-resistant Streptococcus pneumoniae B1 expressing erm gene by broth microdilution method
Streptococcus pneumoniae [4] = assay: Antibacterial activity against erythromycin-resistant Streptococcus pneumoniae AB1-1 expressing erm and mef gene by broth microdilution method

| SMILES | MIC (Streptococcus pneumoniae [1]) | MIC (Streptococcus pneumoniae [2]) | MIC (Streptococcus pneumoniae [3]) | MIC (Streptococcus pneumoniae [4]) |
| --- | --- | --- | --- | --- |
| CC[C@H]1OC(=O)[C@H](C)[C@@H](O[C@H]2C[C@@](C)(OC)[C@@H](OC(=O)NCCc3ccccc3Cl)[C@H](C)O2)[C@H](C)[C@@H](O[C@@H]2O[C@H](C)C[C@H](N(C)C)[C@H]2O)[C@](C)(OC)C[C@@H](C)C(=O)[C@H](C)[C@@H](O)[C@]1(C)O | 4 µg/mL (≈ 4.3 µM) | 0.12 µg/mL (≈ 0.129 µM) | 128 µg/mL (≈ 138 µM) | 128 µg/mL (≈ 138 µM) |
| CC[C@H]1OC(=O)[C@H](C)[C@@H](O[C@H]2C[C@@](C)(OC)[C@@H](O)[C@H](C)O2)[C@H](C)[C@@H](O[C@@H]2O[C@H](C)C[C@H](N(C)C)[C@H]2O)[C@](C)(O)C[C@@H](C)C(=O)[C@H](C)[C@@H](O)[C@]1(C)O [ERYTHROMYCIN] | 8 µg/mL (≈ 10.9 µM) | 0.03 µg/mL (≈ 0.0409 µM) | 128 µg/mL (≈ 174 µM) | 256 µg/mL (≈ 349 µM) |
| CC[C@H]1OC(=O)[C@H](C)[C@@H](O[C@H]2C[C@@](C)(OC)[C@@H](OC(=O)NCc3ccc(OC)cc3)[C@H](C)O2)[C@H](C)[C@@H](O[C@@H]2O[C@H](C)C[C@H](N(C)C)[C@H]2O)[C@](C)(OC)C[C@@H](C)C(=O)[C@H](C)[C@@H](O)[C@]1(C)O | 0.25 µg/mL (≈ 0.274 µM) | 0.03 µg/mL (≈ 0.0329 µM) | 16 µg/mL (≈ 17.6 µM) | 32 µg/mL (≈ 35.1 µM) |
| CC[C@H]1OC(=O)[C@H](C)[C@@H](O[C@H]2C[C@@](C)(OC)[C@@H](OC(=O)NCCCC(=O)NCc3ccccc3)[C@H](C)O2)[C@H](C)[C@@H](O[C@@H]2O[C@H](C)C[C@H](N(C)C)[C@H]2O)[C@](C)(OC)C[C@@H](C)C(=O)[C@H](C)[C@@H](O)[C@]1(C)O | 0.5 µg/mL (≈ 0.517 µM) | 0.03 µg/mL (≈ 0.031 µM) | 2 µg/mL (≈ 2.07 µM) | 0.25 µg/mL (≈ 0.259 µM) |
| CC[C@H]1OC(=O)[C@H](C)[C@@H](O[C@H]2C[C@@](C)(OC)[C@@H](OC(=O)NCCCC(=O)NCc3ccc(OC)cc3)[C@H](C)O2)[C@H](C)[C@@H](O[C@@H]2O[C@H](C)C[C@H](N(C)C)[C@H]2O)[C@](C)(OC)C[C@@H](C)C(=O)[C@H](C)[C@@H](O)[C@]1(C)O | 0.25 µg/mL (≈ 0.251 µM) | 0.03 µg/mL (≈ 0.0301 µM) | 0.06 µg/mL (≈ 0.0602 µM) | 1 µg/mL (≈ 1 µM) |
| CC[C@H]1OC(=O)[C@H](C)[C@@H](O[C@H]2C[C@@](C)(OC)[C@@H](OC(=O)NCc3ccccc3)[C@H](C)O2)[C@H](C)[C@@H](O[C@@H]2O[C@H](C)C[C@H](N(C)C)[C@H]2O)[C@](C)(OC)C[C@@H](C)C(=O)[C@H](C)[C@@H](O)[C@]1(C)O | 0.25 µg/mL (≈ 0.284 µM) | 0.25 µg/mL (≈ 0.284 µM) | 4 µg/mL (≈ 4.54 µM) | 8 µg/mL (≈ 9.08 µM) |
| CC[C@H]1OC(=O)[C@H](C)[C@@H](O[C@H]2C[C@@](C)(OC)[C@@H](OC(=O)NCCc3ccc(O)cc3)[C@H](C)O2)[C@H](C)[C@@H](O[C@@H]2O[C@H](C)C[C@H](N(C)C)[C@H]2O)[C@](C)(OC)C[C@@H](C)C(=O)[C@H](C)[C@@H](O)[C@]1(C)O | 1 µg/mL (≈ 1.1 µM) | 0.03 µg/mL (≈ 0.0329 µM) | 16 µg/mL (≈ 17.6 µM) | 64 µg/mL (≈ 70.2 µM) |
| CC[C@H]1OC(=O)[C@H](C)[C@@H](O[C@H]2C[C@@](C)(OC)[C@@H](OC(=O)NCc3ccc(F)cc3)[C@H](C)O2)[C@H](C)[C@@H](O[C@@H]2O[C@H](C)C[C@H](N(C)C)[C@H]2O)[C@](C)(OC)C[C@@H](C)C(=O)[C@H](C)[C@@H](O)[C@]1(C)O | 0.5 µg/mL (≈ 0.556 µM) | 0.06 µg/mL (≈ 0.0667 µM) | 4 µg/mL (≈ 4.45 µM) | 8 µg/mL (≈ 8.9 µM) |
| CC[C@H]1OC(=O)[C@H](C)[C@@H](O[C@H]2C[C@@](C)(OC)[C@@H](OC(=O)NCCc3ccccc3)[C@H](C)O2)[C@H](C)[C@@H](O[C@@H]2O[C@H](C)C[C@H](N(C)C)[C@H]2O)[C@](C)(OC)C[C@@H](C)C(=O)[C@H](C)[C@@H](O)[C@]1(C)O | 0.5 µg/mL (≈ 0.559 µM) | 0.06 µg/mL (≈ 0.067 µM) | 16 µg/mL (≈ 17.9 µM) | 32 µg/mL (≈ 35.7 µM) |
| CC[C@H]1OC(=O)[C@H](C)[C@@H](O[C@H]2C[C@@](C)(OC)[C@@H](OC(=O)NCCCC(=O)NCCc3ccc(O)cc3)[C@H](C)O2)[C@H](C)[C@@H](O[C@@H]2O[C@H](C)C[C@H](N(C)C)[C@H]2O)[C@](C)(OC)C[C@@H](C)C(=O)[C@H](C)[C@@H](O)[C@]1(C)O | 0.5 µg/mL (≈ 0.502 µM) | 0.03 µg/mL (≈ 0.0301 µM) | 0.25 µg/mL (≈ 0.251 µM) | 1 µg/mL (≈ 1 µM) |
| CC[C@H]1OC(=O)[C@H](C)[C@@H](O[C@H]2C[C@@](C)(OC)[C@@H](O)[C@H](C)O2)[C@H](C)[C@@H](O[C@@H]2O[C@H](C)C[C@H](N(C)C)[C@H]2O)[C@](C)(O)C[C@@H](C)CN(C)[C@H](C)[C@@H](O)[C@]1(C)O [AZITHROMYCIN] | 4 µg/mL (≈ 5.34 µM) | 0.03 µg/mL (≈ 0.0401 µM) | 128 µg/mL (≈ 171 µM) | 256 µg/mL (≈ 342 µM) |
| CC[C@H]1OC(=O)[C@H](C)[C@@H](O[C@H]2C[C@@](C)(OC)[C@@H](O)[C@H](C)O2)[C@H](C)[C@@H](O[C@@H]2O[C@H](C)C[C@H](N(C)C)[C@H]2O)[C@](C)(OC)C[C@@H](C)C(=O)[C@H](C)[C@@H](O)[C@]1(C)O [CLARITHROMYCIN] | 4 µg/mL (≈ 5.35 µM) | 0.03 µg/mL (≈ 0.0401 µM) | 64 µg/mL (≈ 85.6 µM) | 128 µg/mL (≈ 171 µM) |
| CC[C@H]1OC(=O)[C@H](C)[C@@H](O[C@H]2C[C@@](C)(OC)[C@@H](OC(=O)NCCCC(=O)NCc3ccc(F)cc3)[C@H](C)O2)[C@H](C)[C@@H](O[C@@H]2O[C@H](C)C[C@H](N(C)C)[C@H]2O)[C@](C)(OC)C[C@@H](C)C(=O)[C@H](C)[C@@H](O)[C@]1(C)O | 0.25 µg/mL (≈ 0.254 µM) | 0.03 µg/mL (≈ 0.0305 µM) | 1 µg/mL (≈ 1.02 µM) | 2 µg/mL (≈ 2.03 µM) |
| CC[C@H]1OC(=O)[C@H](C)[C@@H](O[C@H]2C[C@@](C)(OC)[C@@H](OC(=O)NCCc3ccc4c(c3)OCO4)[C@H](C)O2)[C@H](C)[C@@H](O[C@@H]2O[C@H](C)C[C@H](N(C)C)[C@H]2O)[C@](C)(OC)C[C@@H](C)C(=O)[C@H](C)[C@@H](O)[C@]1(C)O | 0.25 µg/mL (≈ 0.266 µM) | 0.06 µg/mL (≈ 0.0639 µM) | 32 µg/mL (≈ 34.1 µM) | 64 µg/mL (≈ 68.1 µM) |
| CC[C@H]1OC(=O)[C@H](C)[C@@H](O[C@H]2C[C@@](C)(OC)[C@@H](OC(=O)NCCCC(=O)NCCc3ccccc3Cl)[C@H](C)O2)[C@H](C)[C@@H](O[C@@H]2O[C@H](C)C[C@H](N(C)C)[C@H]2O)[C@](C)(OC)C[C@@H](C)C(=O)[C@H](C)[C@@H](O)[C@]1(C)O | 1 µg/mL (≈ 0.986 µM) | 0.03 µg/mL (≈ 0.0296 µM) | 32 µg/mL (≈ 31.5 µM) | 32 µg/mL (≈ 31.5 µM) |
